Where two headings read alike, the source gives them in different places.
Columns and labels:
[1] = target: T1, recombinant human NAAA protein (Homo sapiens, UniProt Q02083); assay: Fluorometric NAAA activity assay (PAMCA hydrolysis); format: biochemical
T1 construct: purchased R&D Systems (Shanghai, China)
T1 sequence (Q02083 29-359): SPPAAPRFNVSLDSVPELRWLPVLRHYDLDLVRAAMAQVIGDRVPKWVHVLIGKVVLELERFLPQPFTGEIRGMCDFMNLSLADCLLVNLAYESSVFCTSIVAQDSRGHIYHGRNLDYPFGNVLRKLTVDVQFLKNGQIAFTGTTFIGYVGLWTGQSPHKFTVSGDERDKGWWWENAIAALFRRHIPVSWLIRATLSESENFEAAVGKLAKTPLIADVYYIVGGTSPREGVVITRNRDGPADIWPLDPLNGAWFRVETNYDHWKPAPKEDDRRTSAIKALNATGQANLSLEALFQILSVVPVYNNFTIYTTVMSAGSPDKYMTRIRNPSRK
Protocol: (§1) Fluorometric NAAA activity measurement was used to evaluate the natural products inhibitory potency towards NAAA as previously reported with minor modifications ([West et al., 2012a]; [West et al., 2012b]). Briefly, in our initial screening, recombinant human NAAA protein was diluted in NAAA buffer (3 mM DTT, 0.1% Triton X-100, 0.05% BSA, 150 mM NaCl, pH 4.5) to 0.25 µg/ml and then 20 µL were transferred to a 96-well half-volume black plate followed by the addition of 2 µL of DMSO-diluted compounds at a final concentration of 50 µM. After shaking for 10 min on a shaking plate, 28 µL of the N-(4-methylcoumarin)-palmitamide (PAMCA) substrate in assay buffer (final concentration: 25 µM) were added, and the reaction was allowed to proceed at 37 °C for 30 min, then enzyme activity was monitored at a wavelength of 460 nm (excitation wavelength: 360 nm) on a multimode reader (Mithras LB 943, Berthold, Germany). Compounds showing > 50% inhibition were subjected to a series of two-fold dilutions for IC50 testing.
Although several compounds have been discovered as NAAA inhibitors, reports on natural derivatives are limited. Here, we constructed a small library of 465 natural compounds consisting of alkaloids, flavonoids, coumarins, terpenoids, polyacetylenes, and aliphatics for activity screening. First, we established a high-throughput screening system for NAAA inhibitors using the fluorogenic compound N-(4-methyl coumarin) palmitamide (PAMCA) as hydrolyzed substrate ([West et al., 2012b]). PAMCA was metabolized to the fluorescent 7-amino-4-methyl coumarin (AMC) and palmitic acid by NAAA at pH 4.5 ( Figure 1A ). […] To further confirm the effectiveness of the screening system, another two reported potent NAAA inhibitors, F96 and AM9053, were tested.

LPS-induced BV-2 cells [2] = assay: Cellular PEA and OEA levels in LPS-induced BV-2 cells (HPLC-MS/MS); format: cell-based; conditions: 10 μM, LPS 6 h, compared to LPS-treated control
Protocol: (§2) The microglia cell line BV-2 was cultured in DMEM medium containing 10% fetal bovine serum and antibiotics (100 U/ml penicillin, 100 µg/ml streptomycin) and maintained in a humidified 5% CO2 incubator at 37°C. For the experiment, cells were seeded overnight into a 24-well plate for the cytokine assay or into 100-mm dishes for NAE extraction and quantification. The next day, the cells were incubated with fresh culture medium containing the indicated concentration of atractylodin for 0.5 h and following lipopolysaccharide (LPS) treatment (1 μg/ml). Cells incubated with vehicle only (DMSO, 0.1%) were used as control.
FAEs were extracted from BV-2 cells as previously reported ([Yang et al., 2015]). […] An ABI 3200 Q-Trap mass spectrometer (Applied Biosystems, Concord, Canada equipped with a 1100-LC system (Agilent, Shanghai, China) was used in this experiment. The precursor/product ion transitions in multiple reaction monitoring mode (MRM) were used for mass analysis and quantitation. The molecular ions were monitored at m/z 300.2/62.0 for PEA, m/z 326.1/62.0 for OEA, m/z 348.00/62.00 for AEA, m/z 379.10/287.10 for 2-AG, and m/z 313.1/62.0 for C17:1 FAE.
To further investigate the contribution of endogenous fatty acid ethanolamide to the anti-inflammatory effect of atractylodin, cellular PEA and OEA levels were measured by HPLC-MS/MS analysis. […]

LPS-induced BV-2 cells [3] = assay: Pro-inflammatory cytokine release in LPS-induced BV-2 cells (ELISA); format: cell-based; conditions: culture supernatant
Protocol: as §2
LPS was used to activate BV-2 cells to further assess the anti-inflammatory effects of atractylodin. […] Moreover, the ability to inhibit these inflammatory factors was stronger than the positive control drug dexamethasone (Dex) at a concentration of 10 µM ( Figure 6 ).

[4] = tested on: LPS-induced BV-2 microglial cells; assay: Nitrite production in LPS-induced BV-2 cells (Griess reagent); format: cell-based
Protocol: as §2
The concentration of nitrite in the culture medium was determined using a Griess reagent kit that reflected the amount of NO released by cultured cells. Culture supernatants (75 μl) were reacted with an equal volume of Griess reagent kit for 30 min at room temperature, and the absorbance of the diazonium compound at a wavelength of 560 nm was measured.
The cytotoxicity of the NAAA inhibitors on BV-2 cells was assessed using CCK-8. […] NAAA is highly expressed in immune cells, including tissue macrophages, monocytes, and microglia. […] The concentrations of nitrite were monitored using the Griess reagent kit.

NAAA = conditions: read-out: IC50, NAAA inhibition (reported), cited from earlier work
[5] = substrate: CCCCCCCCCCCCCCCC(=O)Nc1ccc2c(C)cc(=O)oc2c1; assay: Fluorometric NAAA activity assay (PAMCA hydrolysis); format: biochemical, human; conditions: other: pH 4.5, 37.0 °C
Protocol: as §1
Although several compounds have been discovered as NAAA inhibitors, reports on natural derivatives are limited. Here, we constructed a small library of 465 natural compounds consisting of alkaloids, flavonoids, coumarins, terpenoids, polyacetylenes, and aliphatics for activity screening. […]

[6] = recombinant human NAAA, PAMCA 25 µM, pH 4.5, 37 °C 30 min, read-out: IC50, NAAA inhibition

COc1ccc2cc1Oc1ccc(cc1)CC1c3cc(c(OC)cc3CCN1C)Oc1c(OC)c(OC)cc3c1C(C2)N(C)CC3 [D-tetrandrine]
IC50 [1, 6]: 52.9 ± 3.05 µM

O=c1cc(-c2ccc(O)c(-c3c(O)cc(O)c4c(=O)cc(-c5ccc(O)cc5)oc34)c2)oc2cc(O)cc(O)c12 [amentoflavone]
IC50 [1, 6]: 37.8 ± 4.04 µM

COc1cc(C[C@H](C)[C@H](C)Cc2ccc3c(c2)OCO3)ccc1O [anwuligan]
IC50 [1, 6]: 23.8 ± 1.06 µM

C/C=C/C#CC#C/C=C/c1ccco1 [atractylodin]
cellular OEA level (LPS-induced BV-2 cells [2]): significantly increased
cellular PEA level (LPS-induced BV-2 cells [2]): significantly increased
IC50 [1]: 2.81 µM
time course of NAAA inhibition (pre-incubation with hNAAA) [1]: rapid and unaffected by longer pre-incubation
mechanism of NAAA inhibition (Lineweaver-Burk plot) ([1]; atractylodin 3 µM): competitive
NAAA activity after dialysis of the NAAA-inhibitor mixture ([1]; dialysis in PBS buffer): fully recovered
inhibition of IL-1β production (LPS-induced BV-2 cells [3]): in a dose-dependent manner
inhibition of IL-6 production (LPS-induced BV-2 cells [3]): in a dose-dependent manner
inhibition of TNF-α production (LPS-induced BV-2 cells [3]): in a dose-dependent manner
decrease of LPS-induced nitrite production ([4]; 10 µM, 30 min pre-incubation, LPS 24 h, compared with vehicle group): 68.21%
inhibition of nitrite generation ([4]; 1–10 µM, LPS-induced BV-2 cells): in a dose-dependent manner

CC(=O)Oc1cccc2c1C(=O)c1c(OC(C)=O)cc(C(=O)O)cc1C2=O [diacerein]
IC50 (NAAA; ref Petrosino et al., 2015): 7.2 µM

C\C(C=C=C1C(C)(C)C[C@H](O)C[C@@]1(C)O)=C/C=C/C(C)=C/C=C/C=C(C)/C=C/C=C(\C)C(=O)C[C@@]12O[C@]1(C)C[C@@H](O)CC2(C)C [fucoxanthinol]
IC50 (NAAA; ref Jin et al., 2020): 12.8 µM

c1cc2c(cc1[C@H]1OC[C@H]3[C@@H]1CO[C@@H]3c1ccc3c(c1)OCO3)OCO2 [sesamin]
IC50 [1, 6]: 30.2 ± 2.09 µM

B1: recombinant human NAAA protein (Homo sapiens) (protein)
chain: T1 sequence (Q02083 29-359)
notes: purchased R&D Systems (Shanghai, China)
Km [5]: 17.92 ± 3.54 µM

Source: publication PMC7565389, “Natural Potent NAAA Inhibitor Atractylodin Counteracts LPS-Induced Microglial Activation” (Frontiers in Pharmacology, 2020)
